ChEMBL document CHEMBL1201862, “PubChem BioAssay data set” (2004)
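1) Cells in 96-well plates. 2) Compound, 48 h, 5 concentrations. 3) Linear interpolation between surrounding doses. 4) Unreached endpoint = highest concentration. At the GI50, growth is halved.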 The source made the active and inactive calls. Cut-off read from the data, not from the text of the source: active = GI50 up to about 1.1 µM and inactive = higher. Where a SMILES comes first, the peptide text is derived from it.

What was measured:
Test in all cases: NCI-60 cell line screen, 48 h
OVCAR-3 = system: OVCAR-3
OVCAR-8 = system: OVCAR-8
SK-MEL-5 = system: SK-MEL-5
NCI-H460 = system: NCI-H460
HCC 2998 = system: HCC 2998
NCI-H23 = system: NCI-H23
MOLT-4 = system: MOLT-4
RPMI-8226 = system: RPMI-8226
SK-MEL-28 = system: SK-MEL-28
M14 = system: M14
SF-539 = system: SF-539
SR = system: SR
SNB-78 = system: SNB-78
HT-29 = system: HT-29
HCT-15 = system: HCT-15
COLO 205 = system: COLO 205
SNB-75 = system: SNB-75
M19-MEL = system: M19-MEL
K562 = system: K562
NCI-H522 = system: NCI-H522

Structure (SMILES)	GI50 (OVCAR-3)	GI50 (OVCAR-8)	GI50 (SK-MEL-5)	GI50 (NCI-H460)	GI50 (HCC 2998)	GI50 (NCI-H23)	GI50 (MOLT-4)	GI50 (RPMI-8226)	GI50 (SK-MEL-28)	GI50 (M14)	GI50 (SF-539)	GI50 (SR)	GI50 (SNB-78)	GI50 (HT-29)	GI50 (HCT-15) [µM]	GI50 (COLO 205)	GI50 (SNB-75)	GI50 (M19-MEL)	GI50 (K562)	GI50 (NCI-H522)
Cc1cc(O)nc(NN2C(Cl)C(=O)C2c2ccc([N+](=O)[O-])cc2)n1 (configuration not stated)	6.53 µM (inactive)	17.8 µM (inactive)	13.5 µM (inactive)	4.04 µM (inactive)	15.3 µM (inactive)	7.18 µM (inactive)	8.13 µM (inactive)	7.35 µM (inactive)	11.9 µM (inactive)	11 µM (inactive)	10.8 µM (inactive)	6.15 µM (inactive)	7.36 µM (inactive)	15.6 µM (inactive)	7.52	18.6 µM (inactive)	2.58 µM (inactive)	4.26 µM (inactive)	3.1 µM (inactive)	
CCOc1ccc(/C=C2\N=C(c3ccccc3)OC2=O)cc1	> 100 µM (inactive)	> 100 µM (inactive)	> 100 µM (inactive)	> 100 µM (inactive)	> 100 µM (inactive)	> 100 µM (inactive)	8.71 µM (inactive)	> 100 µM (inactive)	> 100 µM (inactive)	> 100 µM (inactive)	> 100 µM (inactive)	> 100 µM (inactive)		> 100 µM (inactive)	> 100		83 µM (inactive)		> 100 µM (inactive)	48.5 µM (inactive)
CCCCN1C(=O)NC(Cc2ccccc2)C1=O (configuration not stated)		> 100 µM (inactive)		> 100 µM (inactive)	> 100 µM (inactive)	> 100 µM (inactive)			> 100 µM (inactive)	> 100 µM (inactive)	> 100 µM (inactive)	> 100 µM (inactive)	> 100 µM (inactive)	> 100 µM (inactive)			> 100 µM (inactive)	> 100 µM (inactive)		> 100 µM (inactive)
NC(=O)C1CCCN1C(=O)C(N)Cc1ccccc1 (stereo not drawn) (H-Phe-Pro-NH2; configuration not given here)	> 100 µM (inactive)	> 100 µM (inactive)	> 100 µM (inactive)	> 100 µM (inactive)	> 100 µM (inactive)		> 100 µM (inactive)	> 100 µM (inactive)	> 100 µM (inactive)	> 100 µM (inactive)		> 100 µM (inactive)		> 100 µM (inactive)	> 100	> 100 µM (inactive)			> 100 µM (inactive)	> 100 µM (inactive)
COC(=O)C[C@](O)(CCC(C)(C)O)C(=O)O[C@@H]1C(OC)=C[C@]23CCCN2CCc2cc4c(cc2[C@H]13)OCO4 [HARRINGTONINE]	0.0598 µM (active)	0.16 µM (active)	0.0557 µM (active)	< 0.0182 µM (active)	0.0239 µM (active)	0.0863 µM (active)	0.0333 µM (active)	0.0566 µM (active)	0.0593 µM (active)		0.0295 µM (active)		0.256 µM (active)	0.0661 µM (active)	0.379	0.0977 µM (active)	0.209 µM (active)	0.107 µM (active)	0.05 µM (active)	0.0206 µM (active)
